The source of these data is patent US12129237B2, “Substituted diaminocarboxamide and diaminocarbonitrile pyrimidines, compositions thereof, and methods of treatment therewith” (SIGNAL PHARMACEUTICALS, LLC, priority 2011, dated 2024).

Like-named read-outs stand apart in the source and are kept apart here.

The target in this experiment is T1, JNK1 (Homo sapiens, UniProt P45983).
T1 construct: purchased Carna Biosciences
As to the kind of experiment: JNK1 biochemical assays (one or more of: time resolved fluorescence, Z'-LYTE Cascade, radioactive).

Where [1] appears, read: Table 3, JNK1 IC50 activity level, read-out: Act. Level.
Where [2] appears, read: one or more of the JNK1 biochemical assays, read-out: Act. Level (JNK1 IC50 activity level).
Where [3] appears, read: Table 2, JNK1 IC50 activity level, read-out: Act. Level.
Setting [4] is: tested in one or more of the JNK1 biochemical assays, read-out: Act. Level (JNK1 biochemical assay IC50 activity level).

T1 sequence (P45983 whole entry): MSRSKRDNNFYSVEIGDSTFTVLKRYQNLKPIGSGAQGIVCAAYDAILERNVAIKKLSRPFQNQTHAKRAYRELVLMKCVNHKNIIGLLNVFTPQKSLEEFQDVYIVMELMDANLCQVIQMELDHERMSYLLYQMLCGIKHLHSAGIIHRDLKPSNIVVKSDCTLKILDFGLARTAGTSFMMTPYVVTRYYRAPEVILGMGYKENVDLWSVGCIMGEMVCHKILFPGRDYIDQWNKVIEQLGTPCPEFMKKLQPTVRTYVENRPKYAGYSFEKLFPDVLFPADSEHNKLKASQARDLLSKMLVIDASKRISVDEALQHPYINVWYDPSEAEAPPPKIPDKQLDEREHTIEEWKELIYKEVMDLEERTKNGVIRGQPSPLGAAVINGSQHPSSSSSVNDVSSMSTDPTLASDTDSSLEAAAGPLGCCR

Regarding `CC(C)(C)Nc1ncc(C#N)c(N[C@@H]2CCCC[C@H](O)C2)n1` [Example C-38, 2-(tert-butylamino)-4-((1R,3S)-3-hydroxycycloheptylamino) pyrimidine-5-carbonitrile], the IC50 under setting [1] is less than 200 nM.
For the compound `CCO[C@H]1CC[C@H](Nc2ncc(C#N)c(N[C@@H]3CCOC3)n2)CC1` [Example C-39, 2-((1r,4R)-4-ethoxycyclohexylamino)-4-((R)-tetrahydrofuran-3-ylamino)pyrimidine-5-carbonitrile], under setting [1], the IC50 fell in the range of 1000 to 10000 nM.
For the compound `CC(=O)N[C@H]1CC[C@H](Nc2ncc(C(N)=O)c(NC(C)C)n2)CC1` [Example 203, 2-((1r,4r)-4-acetamidocyclohexylamino)-4-(isopropylamino)pyrimidine-5-carboxamide], the IC50 under setting [2] was less than 200 nM.
Same read-out and setting: for `CC(C)Nc1nc(NC23CCC(O)(CC2)CC3)ncc1C(N)=O` [Example 202, 2-(4-hydroxybicyclo[2.2.2]octan-1-ylamino)-4-(isopropylamino)pyrimidine-5-carboxamide] the value was less than 200 nM; for `COCC(C)(C)Nc1nc(N[C@H]2CC[C@H](O)CC2)ncc1C(N)=O` [Example 271, 2-((1r,4r)-4-hydroxycyclohexylamino)-4-(1-methoxy-2-methylpropan-2-ylamino)pyrimidine-5-carboxamide], less than 200 nM; for `CC[C@H](C)Nc1ncc(C(N)=O)c(N[C@@H]2CCC[C@H](O)C2)n1` [Example 496, 2-(sec-butylamino)-4-((1R,3S)-3-hydroxycyclohexylamino)pyrimidine-5-carboxamide], less than 200 nM.
Still for that read-out and setting: for `CC(C)Nc1ncc(C(N)=O)c(N[C@@H]2CC[C@@H](C)[C@H](O)C2)n1` [Example 240, 4-((1R,3R,4R)-3-hydroxy-4-methylcyclohexylamino)-2-(isopropylamino)pyrimidine-5-carboxamide] the value was less than 200 nM.
`NC(=O)c1cnc(N[C@@H]2CCc3cccnc3C2)nc1N[C@@H]1CCC[C@H](O)C1` [Example B-88, 4-((1R,3S)-3-hydroxycyclohexylamino)-2-((R)-5,6,7,8-tetrahydroquinolin-7-ylamino)pyrimidine-5-carboxamide]: the IC50 under setting [3] is less than 200 nM.
With `N#Cc1cnc(N[C@H]2CC[C@H](OC(F)F)CC2)nc1N[C@@H]1CCCC[C@H](O)C1` [Example C-32, 2-((1r,4R)-4-(difluoromethoxy)cyclohexylamino)-4-((1R,3S)-3-hydroxycycloheptylamino) pyrimidine-5-carbonitrile], the IC50 under setting [1] was less than 200 nM.
As to `NC(=O)c1cnc(NC2CCC(F)(F)CC2)nc1N[C@@H]1CCC[C@H]1O` [Example A-5, 2-(4,4-difluorocyclohexylamino)-4-((1R,2R)-2-hydroxycyclopentylamino)pyrimidine-5-carboxamide], the IC50 under setting [4] is less than 200 nM.
For `NC(=O)c1cnc(NC23CCC(O)(CC2)CC3)nc1NC1CCC1` [Example 232, 4-(cyclobutylamino)-2-(4-hydroxybicyclo[2.2.2]octan-1-ylamino)pyrimidine-5-carboxamide], the IC50 under setting [2] is less than 200 nM.
As for `CC(=O)N[C@H]1CC[C@H](Nc2ncc(C#N)c(N[C@@H]3CCC[C@H](O)C3)n2)CC1` [Example C-13, N-((1R,4r)-4-(5-cyano-4-((1R,3S)-3-hydroxycyclohexylamino)pyrimidin-2-ylamino)cyclohexyl)acetamide], the IC50 under setting [1] was less than 200 nM.
As for `C[C@@H](Nc1nc(N[C@H]2CC[C@H](OC3CC3)CC2)ncc1C(N)=O)C1CC1` [Example 410, 2-((1r,4R)-4-cyclopropoxycyclohexylamino)-4-((R)-1-cyclopropylethylamino)pyrimidine-5-carboxamide], under setting [2], the IC50 was less than 200 nM.
As for `COc1ccc(Nc2ncc(C(N)=O)c(Nc3ccccc3)n2)c(OC)c1` [Example B-20, 2-(2,4-dimethoxyphenylamino)-4-(phenylamino)pyrimidine-5-carboxamide], the IC50 under setting [3] is less than 200 nM.
Consider `CO[C@H]1CC[C@H](Nc2ncc(C(N)=O)c(N[C@H]3C[C@H](C)C3)n2)CC1` [Example 336, 2-((1r,4r)-4-methoxycyclohexylamino)-4-((1r,3r)-3-methylcyclobutylamino)pyrimidine-5-carboxamide], for which the IC50 under setting [2] was less than 200 nM.
Consider `CCC(C)(C)Nc1ncc(C(N)=O)c(N[C@@H]2CCCC[C@H](O)C2)n1` [Example 349, 4-((1R,3S)-3-hydroxycycloheptylamino)-2-(tert-pentylamino)pyrimidine-5-carboxamide], for which, under setting [2], the IC50 is less than 200 nM.
Consider `CNC(=O)[C@H]1CC[C@@H](Nc2nc(NC3CCCC3)ncc2C(N)=O)CC1` [Example A-130, 2-(cyclopentylamino)-4-((1s,4s)-4-(methylcarbamoyl)cyclohexylamino)pyrimidine-5-carboxamide], for which, under setting [4], the IC50 was 1000 to 10000 nM.
Turning to `COc1ccc(C)c(Nc2ncc(C(N)=O)c(Nc3ccccc3)n2)c1` [Example B-34, 2-(5-methoxy-2-methylphenylamino)-4-(phenylamino)pyrimidine-5-carboxamide], the IC50 under setting [3] was less than 200 nM.
Turning to `CC(C)(C)Nc1ncc(C(N)=O)c(N[C@@H]2CCC[C@@H]2CO)n1` [Example 365, 2-(tert-butylamino)-4-((1R,2S)-2-(hydroxymethyl)cyclopentylamino)pyrimidine-5-carboxamide], under setting [2], the IC50 is less than 200 nM.
Regarding `N#Cc1cnc(NC2CCCCC2)nc1Nc1ccccc1` [Example B-86, 2-(cyclohexylamino)-4-(phenylamino)pyrimidine-5-carbonitrile], the IC50 under setting [3] was 1000 to 10000 nM.
Consider `CCC1(Nc2nc(N[C@H]3CC[C@H](O)CC3)ncc2C(N)=O)CC1` [Example 356, 4-(1-ethylcyclopropylamino)-2-((1r,4r)-4-hydroxycyclohexylamino)pyrimidine-5-carboxamide], for which the IC50 under setting [2] was less than 200 nM.
Turning to `CC(C)CC(=O)N1CCC(Nc2ncc(C(N)=O)c(N[C@H]3CC[C@@H](O)C3)n2)CC1` [Example A-87, 4-((1S,3R)-3-hydroxycyclopentylamino)-2-(1-(3-methylbutanoyl)piperidin-4-ylamino)pyrimidine-5-carboxamide], the IC50 under setting [4] is less than 200 nM.
Still for that read-out and setting: for `CO[C@H]1CC[C@H](Nc2ncc(C(N)=O)c(N[C@H]3CC[C@H](O)CC3)n2)CC1` [Example A-34, 4-((1r,4r)-4-hydroxycyclohexylamino)-2-((1r,4r)-4-methoxycyclohexylamino)pyrimidine-5-carboxamide] the value was less than 200 nM.
In the case of `CCOc1cccc(Nc2ncc(C(N)=O)c(Nc3ccccc3)n2)c1` [Example B-26, 2-(3-ethoxyphenylamino)-4-(phenylamino)pyrimidine-5-carboxamide], the IC50 under setting [3] was less than 200 nM.
The same measure, in the same setting: for `CC(C)Nc1nc(N[C@H]2CCc3cnccc3C2)ncc1C(N)=O` [Example B-91, (S)-4-(isopropylamino)-2-(5,6,7,8-tetrahydroisoquinolin-6-ylamino)pyrimidine-5-carboxamide] the value was 200 to 800 nM.
With `NC(=O)c1cnc(NC2CCOCC2)nc1N[C@@H]1CCC[C@H]1O` [Example A-7, 4-((1R,2R)-2-hydroxycyclopentylamino)-2-(tetrahydro-2H-pyran-4-ylamino)pyrimidine-5-carboxamide], the IC50 under setting [4] was less than 200 nM.
The same measure, in the same setting: for `CC(C)Nc1nc(N[C@H]2CC[C@H](OCC(F)(F)F)CC2)ncc1C(N)=O` [Example A-1, 4-(isopropylamino)-2-((1r,4r)-4-(2,2,2-trifluoroethoxy)cyclohexylamino)pyrimidine-5-carboxamide] the value was less than 200 nM.
Take `C[C@H](Nc1ncc(C(N)=O)c(N[C@@H]2CC[C@@H](C)[C@H](O)C2)n1)C1CC1` [Example 395, 2-((S)-1-cyclopropylethylamino)-4-((1R,3R,4R)-3-hydroxy-4-methylcyclohexylamino)pyrimidine-5-carboxamide]: under setting [2], the IC50 is less than 200 nM.
Regarding `C[C@]1(O)CCC[C@@H](Nc2nc(NC3CCC(F)(F)CC3)ncc2C(N)=O)C1` [Example A-187, 2-(4,4-difluorocyclohexylamino)-4-((1R,3S)-3-hydroxy-3-methylcyclohexylamino)pyrimidine-5-carboxamide], under setting [4], the IC50 is less than 200 nM.
As to `NC(=O)c1cnc(NCc2ccc(F)cc2F)nc1Nc1ccccc1` [Example B-57, 2-(2,4-difluorobenzylamino)-4-(phenylamino)pyrimidine-5-carboxamide], the IC50 under setting [3] lay in the range of 200 to 800 nM.
As for `CCO[C@H]1CC[C@H](Nc2ncc(C(N)=O)c(N[C@H](CC)C3CC3)n2)CC1` [Example 375, 4-((R)-1-cyclopropylpropylamino)-2-((1r,4R)-4-ethoxycyclohexylamino)pyrimidine-5-carboxamide], under setting [2], the IC50 is less than 200 nM.
Turning to `NC(=O)c1cnc(Nc2cccc(F)c2)nc1Nc1ccccc1` [Example B-24, 2-(3-fluorophenylamino)-4-(phenylamino)pyrimidine-5-carboxamide], under setting [3], the IC50 was less than 200 nM.
As to `CN(C)C(=O)[C@H]1CC[C@H](Nc2ncc(C(N)=O)c(NC3(C)CCC3)n2)CC1` [Example 414, 2-((1r,4r)-4-(dimethylcarbamoyl)cyclohexylamino)-4-(1-methylcyclobutylamino)pyrimidine-5-carboxamide], the IC50 under setting [2] is less than 200 nM.
For `NC(=O)c1cnc(N[C@H]2CC[C@H](O)CC2)nc1NC1CCC1` [Example A-176, 4-(cyclobutylamino)-2-((1r,4r)-4-hydroxycyclohexylamino)pyrimidine-5-carboxamide], the IC50 under setting [4] was less than 200 nM.
Consider `CCO[C@H]1CC[C@H](Nc2ncc(C(N)=O)c(NC(C)C)n2)CC1` [Example 224, 2-((1r,4r)-4-ethoxycyclohexylamino)-4-(isopropylamino)pyrimidine-5-carboxamide], for which, under setting [2], the IC50 is less than 200 nM.
In the case of `CCC(C)CNc1ncc(C(N)=O)c(Nc2ccccc2)n1` (stereo not shown) [Example B-59, 2-(2-methylbutylamino)-4-(phenylamino)pyrimidine-5-carboxamide], the IC50 under setting [3] is less than 200 nM.
As to `CC(C)(C)Nc1nc(N[C@H]2CCCC[C@@H](O)C2)ncc1C(N)=O` [Example 388, 4-(tert-butylamino)-2-((1S,3R)-3-hydroxycycloheptylamino)pyrimidine-5-carboxamide], under setting [2], the IC50 is less than 200 nM.
